# Measurements taken from patent US10562912B2 (C&C Research Laboratories, priority 2013, dated 2020).
# Legend:
# Format in all cases: cell-based
# STAT3 = target: T1, STAT3 (Homo sapiens, UniProt P40763); experiment: STAT3 reporter gene assay (luciferase), LNCaP stable cell line (pSTAT3-TA-luc), IL-6 stimulation
# T1 construct: plasmid pSTAT3-TA-luc), which contains a stably operating STAT3 promoter; endogenous in cells
# Method: 1-1) Experiment on the Inhibition of STAT3 Activity
# A human prostate cancer cell line (LNCaP stable cell line; plasmid pSTAT3-TA-luc), which contains a stably operating STAT3 promoter, was cultured in RPMI1640 medium (Cat No. 11875, Life Technologies) containing 10% fetal bovine serum (FBS) (Cat No. SH30396, Thermo Scientific) and 150 μg/mL G-418 solution (Cat No. 04 727 894 001, Roche). The reporter gene assay using LNCaP stable cell line was performed in RPMI1640 medium containing 3% DCC-FBS without G-418 solution. LNCaP stable cells were plated in two (2) white 96-well plates with 30,000 cells/50 μL in each well. The cells were cultured at 37° C., under 5% CO2 for 24 hours, and then treated with the compounds listed in Examples which were diluted in various concentrations. Subsequently, IL-6 was added to each well with a final concentration of 10 ng/mL. Upon completion of the treatment with the compounds and IL-6, the cells were cultured at 37° C., under 5% CO2 for from 24 to 48 hours. The plates were observed under microscope and drug precipitation and particular findings were investigated and recorded.
# The luciferase assay and the cell viability assay were performed respectively with one of the two plates. For the luciferase assay, the liquid media in the 96-well plate was removed, and then, 20 μL of passive cell lysis buffer was added to each well. After shaking the plate for 30 minutes, luciferase activities of each well were measured in a PHERAstar™ microplate reader (BMG LABTECH) using a luciferase assay system (Cat No. E1501, Promega). For the cell viability assay, the 96-well plate was placed at room temperature for 30 minutes, added with 20 μL/well of CellTiter-Glo solution (Cat No. G7573, Promega), and shaken for 10 minutes in order to measure cytotoxicity caused by the compounds listed in Examples with a PHERAstar™ microplate reader (BMG LABTECH). Wells without 0.1% DMSO and stimulation were used as a negative control and wells with 0.1% DMSO and stimulation were used as a positive control.
# LNCaP = experiment: Cell growth inhibition assay, prostate cancer cell line LNCaP (medium with 10 ng/mL IL-6); conditions: Homo sapiens, medium supplemented with 10 ng/mL of IL-6, 10,000 cells/well
# Method: (§1) The inhibitory effects of the compounds of the present invention against the growth of cancer cells were evaluated as shown below. The cancer cell lines including stomach cancer cell line (AGS), breast cancer cell lines (MDA-MB-231, MDA-MB-468, and BT-549), prostate cancer cell lines (LNCaP and DU-145), colon cancer cell line (HCT116), ovarian cancer cell line (SW626), liver cancer cell line (Hep3B), kidney cancer cell line (ACHN), lung cancer cell line (NCI-H23) and blood cancer cell lines (HEL92.1.7 and U266) were cultured under the protocol provided by each supplier. A medium supplemented with 10 ng/mL of IL-6 was used for LNCaP, a prostate cancer cell line, when treated with a drug. Each type of cells to be used in experiments were sub-cultured in a 96-well plate by counting the exact number of cells using Tali™ Image-based Cytometer (Life Technologies). In a 96-well plate, AGS, HCT116, and DU-145 were employed with 3,000 cells/well; NCI-H23, SW626, Hep3B, ACHN, BT-549, MDA-MB-231, HEL92.1.7, and U266 were employed with 5,000 cells/well; and LNCaP and MDA-MB-468 were employed with 10,000 cells/well. The cells were treated with the compounds listed in Examples which were diluted in various concentrations. Upon completion of the compounds treatment, AGS, HCT116, SW626, DU145, NCI-H23, Hep3B, ACHN, BT-549, LNCaP, HEL92.1.7, and U266 cells were cultured at 37° C. under 5% CO2 for from 72 to 96 hours, and MDA-MB-231 and MDA-MB-468 cells were cultured at 37° C. in air for from 72 to 96 hours. Subsequently, the cells were observed under microscope and drug precipitation and particular findings were investigated and recorded. And then, the 96-well plate was placed at room temperature for 30 minutes, added with 20 μL/well of CellTiter-Glo solution (Cat No. G7573, Promega) and shaken for 10 minutes, followed by being subjected to the measurement using PHERAstar™ microplate reader (BMG LABTECH) according to the supplier's general luminometer protocol. Wells where only culture liquid added without cell plating were used as a negative control, whereas wells where culture liquid containing 0.1% DMSO instead of the compounds listed in Examples were used as a positive control.
# DU-145 = experiment: Cell growth inhibition assay, prostate cancer cell line DU-145; conditions: Homo sapiens, DU-145 prostate cancer cell line
# Method: as §1
# T1 sequence (P40763 whole entry): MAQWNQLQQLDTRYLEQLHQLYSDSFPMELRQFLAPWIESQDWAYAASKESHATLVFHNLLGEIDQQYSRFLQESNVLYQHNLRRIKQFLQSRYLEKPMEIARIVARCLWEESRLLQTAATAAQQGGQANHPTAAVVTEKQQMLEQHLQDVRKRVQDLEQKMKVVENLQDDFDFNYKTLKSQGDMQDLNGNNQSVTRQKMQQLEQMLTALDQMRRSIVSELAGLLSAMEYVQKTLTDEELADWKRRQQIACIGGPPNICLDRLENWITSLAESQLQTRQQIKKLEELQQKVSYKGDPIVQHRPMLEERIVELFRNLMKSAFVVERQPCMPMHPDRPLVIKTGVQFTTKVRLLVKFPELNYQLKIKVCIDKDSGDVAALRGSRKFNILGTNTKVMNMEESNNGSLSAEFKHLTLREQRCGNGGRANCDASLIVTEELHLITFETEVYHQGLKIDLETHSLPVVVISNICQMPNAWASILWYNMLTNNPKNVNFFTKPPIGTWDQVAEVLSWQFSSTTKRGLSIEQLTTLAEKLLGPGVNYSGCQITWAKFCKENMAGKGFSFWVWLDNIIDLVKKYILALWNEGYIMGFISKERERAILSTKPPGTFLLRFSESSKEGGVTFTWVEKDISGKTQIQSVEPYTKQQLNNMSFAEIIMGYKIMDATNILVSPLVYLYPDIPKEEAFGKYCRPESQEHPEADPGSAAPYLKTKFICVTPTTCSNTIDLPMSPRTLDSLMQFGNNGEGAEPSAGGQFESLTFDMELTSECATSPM
SMILES,IC50 (STAT3),IC50 (LNCaP),IC50 (DU-145)
"CC(C)(c1ccc(S(C)(=O)=O)cc1)c1cc(Cl)cc(NC(=O)c2cc3cc(NS(C)(=O)=O)ccc3s2)c1 [Example 161, N-(3-chloro-5-(2-(4-(methylsulfonyl)phenyl)propan-2-yl)phenyl)-5-(methylsulfonamido)benzo[b]thiophene-2-carboxamide]",> 10 µM,> 1.1 µM,0.72 µM
"COc1ccc(Oc2cc(Cl)cc(NC(=O)c3cc4cc(NS(C)(=O)=O)ccc4s3)c2)cc1 [Example 447, N-(3-chloro-5-(4-methoxyphenoxy)phenyl)-5-(methylsulfonamido)benzo[b]thiophene-2-carboxamide]",0.27 µM,0.49 µM,0.14 µM
"CS(=O)(=O)Nc1ccc2sc(C(=O)Nc3cc(Cl)cc(Oc4ccc(Cl)c(OC(F)(F)F)c4)c3)cc2c1 [Example 468, N-(3-chloro-5-(4-chloro-3-(trifluoromethoxy)phenoxy)phenyl)-5-(methylsulfonamido)benzo[b]thiophene-2-carboxamide]",0.17 µM,0.04 µM,0.028 µM
"CS(=O)(=O)Nc1ccc2sc(C(=O)Nc3cc(Cl)cc(Oc4ccc(F)c(F)c4)c3)cc2c1 [Example 460, N-(3-chloro-5-(3,4-difluorophenoxy)phenyl)-5-(methylsulfonamido)benzo[b]thiophene-2-carboxamide]",0.15 µM,0.23 µM,0.13 µM
"CS(=O)(=O)Nc1ccc2sc(C(=O)Nc3cc(Cl)cc(Oc4cc(Cl)cc(C#N)c4)c3)cc2c1 [Example 458, N-(3-chloro-5-(3-chloro-5-cyanophenoxy)phenyl)-5-(methylsulfonamido)benzo[b]thiophene-2-carboxamide]",0.25 µM,0.33 µM,0.17 µM
"CC(C)Oc1cc(CN2CCOCC2)cc(C(C)(C)c2cc(Cl)cc(NC(=O)c3cc4cc(NS(C)(=O)=O)ccc4s3)c2)c1 [Example 126, N-(3-chloro-5-(2-(3-isopropoxy-5-(morpholinomethyl)phenyl)propan-2-yl)phenyl)-5-(methylsulfonamido)benzo[b]thiophene-2-carboxamide]",0.1 µM,0.11 µM,0.11 µM
"CC(C)(c1cc(Cl)cc(NC(=O)c2cc3cc(NS(C)(=O)=O)ccc3s2)c1)c1ccc(Cl)s1 [Example 174, N-(3-chloro-5-(2-(5-chlorothiophen-2-yl)propan-2-yl)phenyl)-5-(methylsulfonamido)benzo[b]thiophene-2-carboxamide]",0.1 µM,0.091 µM,0.033 µM
"CS(=O)(=O)Nc1ccc2sc(C(=O)Nc3cc(Cl)cc(-c4cnccn4)c3)cc2c1 [Example 338, N-(3-chloro-5-(pyrazin-2-yl)phenyl)-5-(methylsulfonamido)benzo[b]thiophene-2-carboxamide]",0.92 µM,> 1.1 µM,0.43 µM
"CS(=O)(=O)Nc1ccc2sc(C(=O)Nc3cc(Cl)cc(Oc4cccc(Cl)c4)c3)cc2c1 [Example 456, N-(3-chloro-5-(3-chlorophenoxy)phenyl)-5-(methylsulfonamido)benzo[b]thiophene-2-carboxamide]",0.19 µM,0.3 µM,0.25 µM

# Compounds with a lower IC50 (STAT3), results first:
IC50 (STAT3),IC50 (LNCaP),IC50 (DU-145),SMILES
0.096 µM,0.13 µM,0.065 µM,"CS(=O)(=O)Nc1ccc2sc(C(=O)Nc3cc(Cl)cc(Oc4ccc(F)cc4)c3)cc2c1 [Example 446, N-(3-chloro-5-(4-fluorophenoxy)phenyl)-5-(methylsulfonamido)benzo[b]thiophene-2-carboxamide]"
0.036 µM,0.071 µM,0.038 µM,"COc1sccc1C(C)(C)c1cc(Cl)cc(NC(=O)c2cc3cc(NS(C)(=O)=O)ccc3s2)c1 [Example 176, N-(3-chloro-5-(2-(2-methoxythiophen-3-yl)propan-2-yl)phenyl)-5-(methylsulfonamido)benzo[b]thiophene-2-arboxamide]"
0.019 µM,0.01 µM,0.007 µM,"CS(=O)(=O)Nc1cc2cc(C(=O)Nc3cc(Cl)cc(Oc4ccc(OC(F)(F)F)cc4)c3)sc2cc1Cl [Example 480, 6-chloro-N-(3-chloro-5-(4-(trifluoromethoxy)phenoxy)phenyl)-5-(methylsulfonamido)benzo[b]thiophene-2-carboxamide]"
0.016 µM,0.013 µM,0.005 µM,"CS(=O)(=O)Nc1cc2cc(C(=O)Nc3cc(Cl)cc(Oc4ccc(C(F)(F)F)cc4)c3)sc2cc1Cl [Example 482, 6-chloro-N-(3-chloro-5-(4-(trifluoromethyl)phenoxy)phenyl)-5-(methylsulfonamido)benzo[b]thiophene-2-carboxamide]"
0.012 µM,0.013 µM,0.007 µM,"CN(c1ccc2sc(C(=O)Nc3cc(Cl)cc(Oc4ccc(Cl)cc4)c3)cc2c1)S(C)(=O)=O [Example 220, N-(3-chloro-5-(4-chlorophenoxy)phenyl)-5-(N-methylmethylsulfonamido)benzo[b]thiophene-2-carboxamide]"
0.012 µM,0.018 µM,0.005 µM,"CC(C)(c1ccc(F)cc1)c1cc(Cl)cc(NC(=O)c2cc3cc(NS(C)(=O)=O)c(Cl)cc3s2)c1 [Example 182, 6-chloro-N-(3-chloro-5-(2-(4-fluorophenyl)propan-2-yl)phenyl)-5-(methylsulfonamido)benzo[b]thiophene-2-carboxamide]"
0.011 µM,0.11 µM,0.009 µM,"CC(C)(c1ccc(Cl)cc1)c1cc(Cl)cc(NC(=O)c2cc3cc(NS(C)(=O)=O)c(Br)cc3s2)c1 [Example 173, 6-bromo-N-(3-chloro-5-(2-(4-chlorophenyl)propan-2-yl)phenyl)-5-(methylsulfonamido)benzo[b]thiophene-2-carboxamide]"
0.005 µM,0.002 µM,0.001 µM,"CC(C)Oc1cc(OC(F)(F)F)cc(C(C)(C)c2cc(Cl)cc(NC(=O)c3cc4cc(NS(C)(=O)=O)c(Cl)cc4s3)c2)c1 [Example 105, 6-chloro-N-(3-chloro-5-(2-(3-isopropoxy-5-(trifluoromethoxy)phenyl)propan-2-yl)phenyl)-5-(methylsulfonamido)benzo[b]thiophene-2-carboxamide]"
0.005 µM,0.006 µM,0.005 µM,"Cc1csc(C(C)(C)c2cc(Cl)cc(NC(=O)c3cc4cc(NS(C)(=O)=O)c(Cl)cc4s3)c2)c1 [Example 181, 6-chloro-N-(3-chloro-5-(2-(4-methylthiophen-2-yl)propan-2-yl)phenyl)-5-(methylsulfonamido)benzo[b]thiophene-2-carboxamide]"
0.004 µM,0.007 µM,0.004 µM,"Cc1ccc(C(C)(C)c2cc(Cl)cc(NC(=O)c3cc4cc(NS(C)(=O)=O)c(Cl)cc4s3)c2)s1 [Example 179, 6-chloro-N-(3-chloro-5-(2-(5-methylthiophen-2-yl)propan-2-yl)phenyl)-5-(methylsulfonamido)benzo[b]thiophene-2-carboxamide]"
